Assay results as given in patent EP0450097B1, “BENZOHETEROCYCLIC COMPOUNDS” (OTSUKA PHARMACEUTICAL CO., LTD., priority 1989, dated 1991).

molecular target: T1, V₂ receptor (Rattus norvegicus, UniProt Q00788); test: V₂ receptor binding assay ([³H]-Arg-vasopressin, rat kidney plasma membrane preparations); details: 4°C for 3 hours
T1 construct: Using rat kidney plasma membrane preparations; from tissue; host or cells: rat kidney plasma membranes
Experimental: Using rat kidney plasma membrane preparations prepared according to O. Hechter's method [cf: J. Bio. […] After incubation, the mixture is filtered using the glass filter (GF/F) so as to separate the membrane preparation combined with vasopressin and then washed twice with the buffer (5 ml). This glass filter is taken out and mixed with liquid scintillation cocktail. The amount of [³H]-vasopressin combined with the membrane is measured by liquid scintillation counter and the rate of the inhibitory effect of the test compound is estimated according to the following equation. Rate of the inhibitory effect (%) = 100 -(C1 - B1)/(C0 - B1)X 100 [formula] C¹: The amount of [³H]-vasopressin combined with the membrane in the presence of the test compound (in prescribed amount). C⁰: The amount of [³H)-vasopressin combined with the membrane in the absence of the test compound. B¹: The amount of [³H]-vasopressin combined with the membrane in the presence of the excess amount of vasopressin (10⁻⁶ M).
The results are expressed as IC₅₀ values, which is the concentration of the test compound required to achieve the inhibitory effect in the rate of 50 %.

T1 sequence (Q00788 whole entry): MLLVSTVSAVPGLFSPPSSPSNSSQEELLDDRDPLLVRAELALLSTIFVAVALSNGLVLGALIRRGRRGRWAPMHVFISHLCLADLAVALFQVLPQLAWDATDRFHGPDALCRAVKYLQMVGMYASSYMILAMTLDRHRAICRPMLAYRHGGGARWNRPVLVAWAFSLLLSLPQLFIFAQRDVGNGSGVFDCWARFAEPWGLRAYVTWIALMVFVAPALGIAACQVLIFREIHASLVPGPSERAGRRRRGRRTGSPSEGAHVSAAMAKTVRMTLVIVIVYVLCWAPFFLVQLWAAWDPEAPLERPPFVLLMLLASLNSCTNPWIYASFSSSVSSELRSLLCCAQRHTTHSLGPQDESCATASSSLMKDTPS

Row | SMILES | IC50 [nM]
1 | Cc1cccc(OCC(=O)Nc2ccc(C(=O)N3CCCCc4ccccc43)cc2)c1 [compound 107] | 32
2 | COc1cccc(NCC(=O)Nc2ccc(C(=O)N3CCCCc4ccccc43)cc2)c1 [compound 108] | 120
3 | Cc1ccc(NCC(=O)Nc2ccc(C(=O)N3CCCCc4ccccc43)cc2)cc1 [compound 110] | 44
4 | COc1cccc(OCC(=O)Nc2ccc(C(=O)N3CCCCc4ccccc43)cc2)c1 [compound 111] | 87
5 | Cc1ccc(NCC(=O)Nc2ccc(C(=O)N3CCCCc4ccccc43)cc2)c(C)c1 [compound 113] | 280
6 | O=C(Nc1ccc(C(=O)N2CCCC(=O)c3ccccc32)cc1)c1cc(Cl)cc(Cl)c1 [compound 139] | 100
7 | CN1CCN(C(=O)c2ccc(NC(=O)c3cc(Cl)cc(Cl)c3)cc2Cl)c2ccccc2C1 [compound 140] | 24
8 | CNC1CCCN(C(=O)c2ccc(NC(=O)c3cc(Cl)cc(Cl)c3)cc2)c2ccccc21 (stereo not drawn) [compound 141] | 10
9 | CC(=O)N(C)C1CCCN(C(=O)c2ccc(NC(=O)c3cc(Cl)cc(Cl)c3)cc2)c2ccccc21 (stereo not drawn) [compound 142] | 8
10 | COc1cc(C(=O)N2CCC(N(C)C)c3ccccc32)ccc1NC(=O)c1cccc(C)c1C (stereo not drawn) [compound 144] | 20
11 | Cc1ccccc1C(=O)Nc1ccc(C(=O)N2CCC(CN(C)C)c3ccccc32)cc1 (stereo not drawn) [compound 145] | 60
12 | CCCNC1CCCN(C(=O)c2ccc(NC(=O)c3ccc(Cl)cc3Cl)cc2)c2ccccc21 (stereo not drawn) [compound 169] | 71
13 | Cc1ccccc1C(=O)Nc1ccc(C(=O)N2CCCC(N(C)C)c3ccccc32)cc1OCc1ccccc1 (stereo not drawn) [compound 170] | 250
14 | Cc1ccccc1C(=O)Nc1ccc(C(=O)N2CCC[S+]([O-])c3ccccc32)cc1 (stereo not drawn) [compound 171] | 870
15 | CN(C)C1CCCN(C(=O)c2ccc(NC(=O)c3ccccc3C(C)(C)C)cc2Cl)c2ccccc21 (stereo not drawn) [compound 175] | 38
16 | CNC1CCCN(C(=O)c2ccc(NC(=O)c3ccccc3Cl)cc2Cl)c2ccccc21 (stereo not drawn) [compound 176] | 4
17 | COc1cc(NC(=O)c2ccccc2Cl)ccc1C(=O)N1CCCC(N(C)C)c2ccccc21 (stereo not drawn) [compound 177] | 150
18 | CN(C)C1CCCN(C(=O)c2ccc(NC(=O)c3ccccc3Cl)cc2)c2ccccc21 (stereo not drawn) [compound 180] | 34
19 | CNC1CCCN(C(=O)c2ccc(NC(=O)c3ccccc3Cl)cc2)c2ccccc21 (stereo not drawn) [compound 181] | 38
20 | CNC1CCCN(C(=O)c2ccc(NC(=O)c3ccccc3C)cc2Cl)c2ccccc21 (stereo not drawn) [compound 182] | 5

Row | SMILES | IC50 [nM]
21 | COc1cc(NC(=O)c2ccccc2C)ccc1C(=O)N1CCCC(N(C)C)c2ccccc21 (stereo not drawn) [compound 183] | 260
22 | CN(C)C1CCCN(C(=O)c2ccc(NC(=O)c3ccccc3Cl)cc2Cl)c2ccccc21 (stereo not drawn) [compound 184] | 23
23 | O=C(Nc1ccc(C(=O)N2CCCC(NC3CC3)c3ccccc32)c(Cl)c1)c1ccc(Cl)cc1Cl (stereo not drawn) [compound 186] | 30
24 | CN(C)C1CCCN(C(=O)c2ccc(NC(=O)c3ccccc3Cl)c(OC(=O)c3ccccc3Cl)c2)c2ccccc21 (stereo not drawn) [compound 189] | 87
25 | C=CCN(C)C1CCCN(C(=O)c2ccc(NC(=O)c3ccccc3C)cc2Cl)c2ccccc21 (stereo not drawn) [compound 190] | 82
26 | Cc1ccccc1C(=O)Nc1ccc(C(=O)N2CCCC(OC(N)=O)c3ccccc32)cc1 (stereo not drawn) [compound 191] | 9
27 | Cc1ccccc1C(=O)Nc1ccc(C(=O)N2CCCC(N(C)C)c3ccccc32)c(N(C)C)c1 (stereo not drawn) [compound 197] | 990
28 | CNC1CCCN(C(=O)c2ccc(NC(=O)c3ccccc3C(F)(F)F)cc2Cl)c2ccccc21 (stereo not drawn) [compound 198] | 40
29 | O=C(Nc1ccc(C(=O)N2CCCC(NC3CC3)c3ccccc32)c(Cl)c1)c1ccccc1Cl (stereo not drawn) [compound 200] | 24
30 | C=CCNC1CCCN(C(=O)c2ccc(NC(=O)c3ccccc3C)cc2Cl)c2ccccc21 (stereo not drawn) [compound 201] | 23
31 | O=C(Nc1ccc(C(=O)N2CCCC(N3CCCCC3)c3ccccc32)cc1)c1ccccc1Cl (stereo not drawn) [compound 202] | 140
32 | O=C(Nc1ccc(C(=O)N2CCCC(N3CCN(Cc4ccccc4)CC3)c3ccccc32)cc1)c1ccccc1Cl (stereo not drawn) [compound 203] | 70
33 | O=C(Nc1ccc(C(=O)N2CCCC(N3CCCC3)c3ccccc32)cc1)c1ccccc1Cl (stereo not drawn) [compound 204] | 110
34 | CC(=O)N1CCN(C2CCCN(C(=O)c3ccc(NC(=O)c4ccccc4Cl)cc3)c3ccccc32)CC1 (stereo not drawn) [compound 205] | 74
35 | CN1CCN(C2CCCN(C(=O)c3ccc(NC(=O)c4ccccc4Cl)cc3)c3ccccc32)CC1 (stereo not drawn) [compound 206] | 88
36 | Cc1ccccc1C(=O)Nc1ccc(C(=O)N2CCCC(O)c3ccccc32)c(Cl)c1 (stereo not drawn) [compound 210] | 4
37 | CN(C)C1CCCN(C(=O)c2ccc(NC(=O)c3ccccc3F)cc2)c2ccccc21 (stereo not drawn) [compound 212] | 35
38 | CN(C)C1CCCN(C(=O)c2ccc(NC(=O)c3ccc(F)cc3F)cc2)c2ccccc21 (stereo not drawn) [compound 213] | 33
39 | CN(C)C1c2ccccc2N(C(=O)c2ccc(NC(=O)c3ccccc3Cl)cc2)CCC1O (stereo not drawn) [compound 216] | 910

The next lines start with the values.

Row | IC50 [nM] | SMILES
40 | 370 | Cc1ccccc1C(=O)Nc1ccc(C(=O)N2CC=Cc3ccccc32)cc1 [compound 217]
41 | 22 | Cc1ccccc1C(=O)Nc1ccc(C(=O)N2CCCC(N(C)C)c3ccccc32)c(C)c1 (stereo not drawn) [compound 218]
42 | 23 | Cc1cc(NC(=O)c2ccccc2Cl)ccc1C(=O)N1CCCC(N(C)C)c2ccccc21 (stereo not drawn) [compound 219]
43 | 26 | Cc1cc(NC(=O)c2ccc(Cl)cc2Cl)ccc1C(=O)N1CCCC(N(C)C)c2ccccc21 (stereo not drawn) [compound 220]
44 | 24 | CCN(CC(=O)Nc1ccc(C(=O)N2CCCC(NC)c3ccccc32)c(Cl)c1)c1ccccc1 (stereo not drawn) [compound 221]
45 | 22 | CN(C)C1CCCN(C(=O)c2ccc(NC(=O)c3ccccc3Cl)cc2F)c2ccccc21 (stereo not drawn) [compound 223]
46 | 380 | CNC1c2ccccc2N(C(=O)c2ccc(NC(=O)c3ccccc3Cl)cc2Cl)CCC1O (stereo not drawn) [compound 224]
47 | 30 | Cc1ccccc1C(=O)Nc1ccc(C(=O)N2CCCC(O)(CO)c3ccccc32)c(Cl)c1 (stereo not drawn) [compound 225]
48 | 19 | Cc1ccccc1C(=O)Nc1ccc(C(=O)N2CCCC(N(C)C)c3ccccc32)c(F)c1 (stereo not drawn) [compound 226]
49 | 29 | Cc1cc(C(=O)N2CCCC(N(C)C)c3ccccc32)ccc1NC(=O)c1ccc(Cl)cc1Cl (stereo not drawn) [compound 227]
50 | 29 | CCN(C)C1CCCN(C(=O)c2ccc(NC(=O)c3ccccc3C)cc2)c2ccccc21 (stereo not drawn) [compound 228]
51 | 29 | CCNC1CCCN(C(=O)c2ccc(NC(=O)c3ccccc3C)cc2)c2ccccc21 (stereo not drawn) [compound 229]
52 | 20 | CN(C)C1CCCN(C(=O)c2ccc(NC(=O)c3cc(F)cc(F)c3)cc2)c2ccccc21 (stereo not drawn) [compound 230]
53 | 20 | Cc1ccccc1C(=O)Nc1ccc(C(=O)N2CCCC(N(C)C)c3ccccc32)cc1F (stereo not drawn) [compound 232]
54 | 150 | COC1(OC)CCN(C(=O)c2ccc(NC(=O)c3ccccc3C)cc2)c2ccccc2C1 [compound 233]
55 | 140 | CC(=O)ON=C1CCCN(C(=O)c2ccc(NC(=O)c3ccccc3Cl)cc2)c2ccccc21 [compound 234]
56 | 41 | Cc1ccccc1C(=O)Nc1ccc(C(=O)N2CCCC(O)(CO)c3ccccc32)cc1 (stereo not drawn) [compound 237]

Row | IC50 [nM] | SMILES
57 | 170 | CN(C)C1CCCN(C(=O)c2ccc(NC(=O)c3ccccc3OCC(N)=O)cc2)c2ccccc21 (stereo not drawn) [compound 239]
58 | 60 | COc1cc(C(=O)N2CCCC(N(C)C)c3ccccc32)ccc1NC(=O)c1ccc(Cl)cc1Cl (stereo not drawn) [compound 248]
59 | 94 | CN1CC(=O)OC2CCN(C(=O)c3ccc(NC(=O)c4ccccc4Cl)cc3)c3ccccc3C21 (stereo not drawn) [compound 251]
60 | 52 | NC1CCCN(C(=O)c2ccc(NC(=O)c3ccccc3Cl)cc2)c2ccccc21 (stereo not drawn) [compound 253]
61 | 16 | Cc1ccccc1C(=O)Nc1ccc(C(=O)N2CCC(C)C(N(C)C)c3ccccc32)cc1 (stereo not drawn) [compound 254]
62 | 45 | O=C(Nc1ccc(C(=O)N2CCCC(NCCc3ccccn3)c3ccccc32)cc1)c1ccccc1Cl (stereo not drawn) [compound 257]
63 | 200 | Cc1ccccc1C(=O)Nc1ccc(C(=O)N2CCCC(N(C)S(C)(=O)=O)c3ccccc32)cc1 (stereo not drawn) [compound 258]
64 | 130 | CCOC(=O)NC1CCCN(C(=O)c2ccc(NC(=O)c3ccccc3C)cc2)c2ccccc21 (stereo not drawn) [compound 260]
65 | 11 | Cc1ccccc1C(=O)Nc1ccc(C(=O)N2CCCC(C)(O)c3ccccc32)cc1 (stereo not drawn) [compound 261]
66 | 29 | CCOC(=O)CN(C)C1CCCN(C(=O)c2ccc(NC(=O)c3ccccc3C)cc2)c2ccccc21 (stereo not drawn) [compound 262]
67 | 53 | Cc1ccccc1C(=O)Nc1ccc(C(=O)N2CCCC(NC3CCCC3)c3ccccc32)c(Cl)c1 (stereo not drawn) [compound 263]
68 | 30 | Cc1ccccc1C(=O)Nc1ccc(C(=O)N2CCCC(N(C)CC(O)CO)c3ccccc32)cc1 (stereo not drawn) [compound 264]
69 | 25 | Cc1ccccc1C(=O)Nc1ccc(C(=O)N2CCCC(N(C)CC#N)c3ccccc32)cc1 (stereo not drawn) [compound 265]
70 | 120 | Cc1ccccc1C(=O)Nc1ccc(C(=O)N2CCCC(N(C)CCCOC3CCCCO3)c3ccccc32)cc1 (stereo not drawn) [compound 267]
71 | 18 | Cc1ccccc1C(=O)Nc1ccc(C(=O)N2CCCC(CN(C)C)c3ccccc32)cc1 (stereo not drawn) [compound 268]
72 | 380 | Cc1ccccc1C(=O)Nc1ccc(C(=O)N2CCCC(NN)c3ccccc32)cc1 (stereo not drawn) [compound 282]
